The values that follow come from patent publication US9340600B2 (Indiana University Research and Technology Corporation, priority 2012, dated 2016).

Type in all cases: cell-based
One assay concerns the target T1, GLP-1 receptor (Homo sapiens, UniProt P43220).
T1 construct: expressed in transfected cells; host or cells: HEK293
The assay can be described thus: cAMP induction, firefly luciferase-based reporter assay in HEK293 cells co-transfected with GLP-1 receptor. The note with it: EC50 at GLP-1 Receptor. From the text:
(§1) This example describes an exemplary method of testing the biological activity of the peptides of the present disclosures, which method involves assaying cAMP synthesis.
For orientation: In a reporter assay the amount or activity of a reporter protein is the signal.

The target in another assay is T2, GIP receptor (Homo sapiens, UniProt P48546).
T2 construct: expressed in transfected cells; host or cells: HEK293
T2 sequence (P48546 22-466): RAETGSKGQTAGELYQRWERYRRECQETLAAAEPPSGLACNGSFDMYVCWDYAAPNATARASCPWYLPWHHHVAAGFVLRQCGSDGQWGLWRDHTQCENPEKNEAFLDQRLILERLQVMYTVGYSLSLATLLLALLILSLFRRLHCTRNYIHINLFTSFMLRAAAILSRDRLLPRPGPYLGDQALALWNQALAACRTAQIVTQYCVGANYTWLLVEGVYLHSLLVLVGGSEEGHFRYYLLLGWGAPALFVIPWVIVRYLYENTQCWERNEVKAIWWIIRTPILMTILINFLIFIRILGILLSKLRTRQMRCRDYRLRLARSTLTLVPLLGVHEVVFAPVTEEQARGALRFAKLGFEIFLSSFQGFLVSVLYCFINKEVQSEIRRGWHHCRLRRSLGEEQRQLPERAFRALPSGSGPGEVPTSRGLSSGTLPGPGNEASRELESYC
The assay is described as follows: cAMP induction, firefly luciferase-based reporter assay in HEK293 cells co-transfected with GIP receptor. The note with it: EC50 at GIP Receptor.
Excerpt: as §1

Another assay addresses T3, glucagon receptor (Homo sapiens, UniProt P47871).
T3 construct: expressed in transfected cells; host or cells: HEK293
The assay can be described thus: cAMP induction, firefly luciferase-based reporter assay in HEK293 cells co-transfected with glucagon receptor. The note with it: EC50 at Glucagon Receptor.
Excerpt: as §1

The mark [1] stands for this setting: Table 3, analogs of SEQ ID NO: 18 varying at position 3.
[2] abbreviates: Table 2, analogs of SEQ ID NO: 18 varying at positions 16-21.

The structures appear in SMILES notation. *1 amine or outer side, *2 acyl side, *3 side chain or, on linkers, in order; H or OH if unused. Where a SMILES comes first, the peptide text is derived from it. Side-chain parts run from the residue outwards. [ ]: non-standard residue; d: D form. The star is where a group is joined. γGlu = O=C(O)[C@H](CCC(=O)[*:2])N[*:1]; Palmitoyl = CCCCCCCCCCCCCCCC(=O)*; Orn = NCCC[C@H](N)C(=O)O; Aib = CC(C)(N)C(=O)O

T3 sequence (P47871 26-477): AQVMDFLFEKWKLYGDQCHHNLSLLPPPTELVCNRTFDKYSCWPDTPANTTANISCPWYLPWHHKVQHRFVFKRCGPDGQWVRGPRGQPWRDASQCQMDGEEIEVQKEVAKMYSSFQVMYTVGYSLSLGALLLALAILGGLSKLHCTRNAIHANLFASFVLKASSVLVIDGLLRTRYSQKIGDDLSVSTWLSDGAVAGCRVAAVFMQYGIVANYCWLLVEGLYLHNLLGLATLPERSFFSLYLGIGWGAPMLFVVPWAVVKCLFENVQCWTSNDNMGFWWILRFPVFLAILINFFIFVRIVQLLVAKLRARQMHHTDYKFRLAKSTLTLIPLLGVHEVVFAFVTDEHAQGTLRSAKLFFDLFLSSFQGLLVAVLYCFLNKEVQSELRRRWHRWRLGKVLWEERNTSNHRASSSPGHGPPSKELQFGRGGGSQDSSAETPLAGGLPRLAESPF
T1 sequence (P43220 24-463): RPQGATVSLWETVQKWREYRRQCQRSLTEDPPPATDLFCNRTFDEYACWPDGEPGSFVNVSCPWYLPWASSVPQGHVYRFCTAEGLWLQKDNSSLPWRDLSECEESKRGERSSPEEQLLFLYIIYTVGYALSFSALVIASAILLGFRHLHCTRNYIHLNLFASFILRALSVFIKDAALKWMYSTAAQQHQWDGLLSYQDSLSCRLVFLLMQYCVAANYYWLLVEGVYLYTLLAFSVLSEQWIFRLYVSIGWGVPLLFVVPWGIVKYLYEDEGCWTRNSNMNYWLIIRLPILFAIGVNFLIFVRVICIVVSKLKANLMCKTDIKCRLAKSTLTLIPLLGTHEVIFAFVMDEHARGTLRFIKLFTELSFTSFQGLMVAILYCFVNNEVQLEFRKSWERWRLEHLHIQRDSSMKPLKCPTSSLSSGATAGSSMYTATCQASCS

`CCCCCCCCCCCCCCCC(=O)N[C@@H](CCC(=O)NCCCC[C@H](NC(=O)[C@H](CC(=O)O)NC(=O)[C@H](CO)NC(=O)[C@@H](NC(=O)[C@H](Cc1ccccc1)NC(=O)[C@@H](NC(=O)CNC(=O)[C@H](CCCNC(C)=O)NC(=O)C(C)(C)NC(=O)[C@@H](N)Cc1c[nH]cn1)[C@@H](C)O)[C@@H](C)O)C(=O)N[C@@H](CO)C(=O)N[C@@H](CCCCN)C(=O)N[C@@H](Cc1ccc(O)cc1)C(=O)N[C@@H](CC(C)C)C(=O)N[C@@H](CCC(=O)O)C(=O)N[C@@H](CCC(=O)O)C(=O)N[C@@H](CCCNC(=N)N)C(=O)N[C@@H](C)C(=O)N[C@@H](C)C(=O)N[C@@H](CCC(N)=O)C(=O)N[C@@H](CCC(=O)O)C(=O)N[C@@H](Cc1ccccc1)C(=O)N[C@H](C(=O)N[C@@H](CCC(N)=O)C(=O)N[C@@H](Cc1c[nH]c2ccccc12)C(=O)N[C@@H](CC(C)C)C(=O)N[C@@H](CC(C)C)C(=O)N[C@@H](CCC(=O)O)C(=O)NCC(=O)NCC(=O)N1CCC[C@H]1C(=O)N[C@@H](CO)C(=O)N[C@@H](CO)C(=O)NCC(=O)N[C@@H](C)C(=O)N1CCC[C@H]1C(=O)N1CCC[C@H]1C(=O)N1CCC[C@H]1C(=O)N[C@@H](CO)C(N)=O)C(C)C)C(=O)O` [compound 34] (H-H[Aib][Orn](Ac)GTFTSDK([γGlu-Palmitoyl])SKYLEERAAQEFVQWLLEGGPSSGAPPPS-NH2; N-terminus assumed): the concentration giving a half-maximal response (EC50) at GLP-1 receptor (setting [1]) turned out to be 1 pM; at GIP receptor (setting [1]), 20 pM; at glucagon receptor (setting [1]), 0.368 nM.

In the case of `CCCCCCCCCCCCCCCC(=O)N[C@@H](CCC(=O)NCCCC[C@H](NC(=O)[C@H](CC(=O)O)NC(=O)[C@H](CO)NC(=O)[C@@H](NC(=O)[C@H](Cc1ccccc1)NC(=O)[C@@H](NC(=O)CNC(=O)[C@H](CCC(N)=O)NC(=O)C(C)(C)NC(=O)[C@@H](N)Cc1c[nH]cn1)[C@@H](C)O)[C@@H](C)O)C(=O)N[C@@H](CO)C(=O)N[C@@H](CCCCN)C(=O)N[C@@H](Cc1ccc(O)cc1)C(=O)N[C@@H](CC(C)C)C(=O)N[C@@H](CC(=O)O)C(=O)N[C@@H](CCC(=O)O)C(=O)N[C@@H](CCCNC(=N)N)C(=O)N[C@@H](C)C(=O)N[C@@H](C)C(=O)N[C@@H](Cc1c[nH]cn1)C(=O)N[C@@H](CC(=O)O)C(=O)N[C@@H](Cc1ccccc1)C(=O)N[C@H](C(=O)N[C@@H](CCC(N)=O)C(=O)N[C@@H](Cc1c[nH]c2ccccc12)C(=O)N[C@@H](CC(C)C)C(=O)N[C@@H](CC(C)C)C(=O)N[C@@H](CC(=O)O)C(=O)NCC(=O)NCC(=O)N1CCC[C@H]1C(=O)N[C@@H](CO)C(=O)N[C@@H](CO)C(=O)NCC(=O)N[C@@H](C)C(=O)N1CCC[C@H]1C(=O)N1CCC[C@H]1C(=O)N1CCC[C@H]1C(=O)N[C@@H](CO)C(N)=O)C(C)C)C(=O)O` [compound 19] (H-H[Aib]QGTFTSDK([γGlu-Palmitoyl])SKYLDERAAHDFVQWLLDGGPSSGAPPPS-NH2), the EC50 on GLP-1 receptor (setting [2]) amounted to 18 pM; at GIP receptor (setting [2]), 15 pM; on glucagon receptor (setting [2]) it was 0.012 nM.

For the compound `CCCCCCCCCCCCCCCC(=O)N[C@@H](CCC(=O)NCCCC[C@H](NC(=O)[C@H](CC(=O)O)NC(=O)[C@H](CO)NC(=O)[C@@H](NC(=O)[C@H](Cc1ccccc1)NC(=O)[C@@H](NC(=O)CNC(=O)[C@H](CCC(N)=O)NC(=O)C(C)(C)NC(=O)[C@@H](N)Cc1c[nH]cn1)[C@@H](C)O)[C@@H](C)O)C(=O)N[C@@H](CO)C(=O)N[C@@H](CCCCN)C(=O)N[C@@H](Cc1ccc(O)cc1)C(=O)N[C@@H](CC(C)C)C(=O)N[C@@H](CCC(=O)O)C(=O)N[C@@H](CCC(=O)O)C(=O)N[C@@H](CCCNC(=N)N)C(=O)N[C@@H](C)C(=O)N[C@@H](C)C(=O)N[C@@H](CCC(N)=O)C(=O)N[C@@H](CCC(=O)O)C(=O)N[C@@H](Cc1ccccc1)C(=O)N[C@H](C(=O)N[C@@H](CCC(N)=O)C(=O)N[C@@H](Cc1c[nH]c2ccccc12)C(=O)N[C@@H](CC(C)C)C(=O)N[C@@H](CC(C)C)C(=O)N[C@@H](CCC(=O)O)C(=O)NCC(=O)NCC(=O)N1CCC[C@H]1C(=O)N[C@@H](CO)C(=O)N[C@@H](CO)C(=O)NCC(=O)N[C@@H](C)C(=O)N1CCC[C@H]1C(=O)N1CCC[C@H]1C(=O)N1CCC[C@H]1C(=O)N[C@@H](CO)C(N)=O)C(C)C)C(=O)O` [compound 18] (H-H[Aib]QGTFTSDK([γGlu-Palmitoyl])SKYLEERAAQEFVQWLLEGGPSSGAPPPS-NH2), the concentration for a half-maximal effect (EC50) was 8 pM at GLP-1 receptor (Table 1); 10 pM at GLP-1 receptor (setting [2]); 4 pM on GIP receptor (setting [2]); 4 pM at GIP receptor (setting [1]); 0.005 nM at glucagon receptor (setting [2]); 0.005 nM on glucagon receptor (setting [1]).

On to `CCCCCCCCCCCCCCCC(=O)N[C@@H](CCC(=O)NCCCC[C@H](NC(=O)[C@H](CC(=O)O)NC(=O)[C@H](CO)NC(=O)[C@@H](NC(=O)[C@H](Cc1ccccc1)NC(=O)[C@@H](NC(=O)CNC(=O)[C@@H](NC(=O)C(C)(C)NC(=O)[C@@H](N)Cc1c[nH]cn1)C(C)C)[C@@H](C)O)[C@@H](C)O)C(=O)N[C@@H](CO)C(=O)N[C@@H](CCCCN)C(=O)N[C@@H](Cc1ccc(O)cc1)C(=O)N[C@@H](CC(C)C)C(=O)N[C@@H](CCC(=O)O)C(=O)N[C@@H](CCC(=O)O)C(=O)N[C@@H](CCCNC(=N)N)C(=O)N[C@@H](C)C(=O)N[C@@H](C)C(=O)N[C@@H](CCC(N)=O)C(=O)N[C@@H](CCC(=O)O)C(=O)N[C@@H](Cc1ccccc1)C(=O)N[C@H](C(=O)N[C@@H](CCC(N)=O)C(=O)N[C@@H](Cc1c[nH]c2ccccc12)C(=O)N[C@@H](CC(C)C)C(=O)N[C@@H](CC(C)C)C(=O)N[C@@H](CCC(=O)O)C(=O)NCC(=O)NCC(=O)N1CCC[C@H]1C(=O)N[C@@H](CO)C(=O)N[C@@H](CO)C(=O)NCC(=O)N[C@@H](C)C(=O)N1CCC[C@H]1C(=O)N1CCC[C@H]1C(=O)N1CCC[C@H]1C(=O)N[C@@H](CO)C(N)=O)C(C)C)C(=O)O` [compound 37] (H-H[Aib]VGTFTSDK([γGlu-Palmitoyl])SKYLEERAAQEFVQWLLEGGPSSGAPPPS-NH2; N-terminus assumed), for which the 50% effective concentration (EC50) at GLP-1 receptor (setting [1]) was determined as 2 pM; on GIP receptor (setting [1]), 2 pM; on glucagon receptor (setting [1]), 0.029 nM.

Consider `CCCCCCCCCCCCCCCC(=O)N[C@@H](CCC(=O)NCCCC[C@H](NC(=O)[C@H](CC(=O)O)NC(=O)[C@H](CO)NC(=O)[C@@H](NC(=O)[C@H](Cc1ccccc1)NC(=O)[C@@H](NC(=O)CNC(=O)[C@H](CCC(N)=O)NC(=O)C(C)(C)NC(=O)[C@@H](N)Cc1c[nH]cn1)[C@@H](C)O)[C@@H](C)O)C(=O)N[C@@H](CO)C(=O)N[C@@H](CCCCN)C(=O)N[C@@H](Cc1ccc(O)cc1)C(=O)N[C@@H](CC(C)C)C(=O)N[C@@H](CC(=O)O)C(=O)N[C@@H](Cc1c[nH]cn1)C(=O)N[C@@H](CCCNC(=N)N)C(=O)N[C@@H](C)C(=O)N[C@@H](C)C(=O)NC(C)(C)C(=O)N[C@@H](CCC(=O)O)C(=O)N[C@@H](Cc1ccccc1)C(=O)N[C@H](C(=O)N[C@@H](CCC(N)=O)C(=O)N[C@@H](Cc1c[nH]c2ccccc12)C(=O)N[C@@H](CC(C)C)C(=O)N[C@@H](CC(C)C)C(=O)N[C@@H](CC(=O)O)C(=O)NCC(=O)NCC(=O)N1CCC[C@H]1C(=O)N[C@@H](CO)C(=O)N[C@@H](CO)C(=O)NCC(=O)N[C@@H](C)C(=O)N1CCC[C@H]1C(=O)N1CCC[C@H]1C(=O)N1CCC[C@H]1C(=O)N[C@@H](CO)C(N)=O)C(C)C)C(=O)O` [compound 25] (H-H[Aib]QGTFTSDK([γGlu-Palmitoyl])SKYLDHRAA[Aib]EFVQWLLDGGPSSGAPPPS-NH2; N-terminus assumed), for which the EC50 at GLP-1 receptor (setting [2]) was determined as 4 pM; on GIP receptor (setting [2]) it was 3 pM; on glucagon receptor (setting [2]), 0.005 nM.

Take `CCCCCCCCCCCCCCCC(=O)N[C@@H](CCC(=O)NCCCC[C@H](NC(=O)[C@H](CC(=O)O)NC(=O)[C@H](CO)NC(=O)[C@@H](NC(=O)[C@H](Cc1ccccc1)NC(=O)[C@@H](NC(=O)CNC(=O)[C@H](CCC(N)=O)NC(=O)C(C)(C)NC(=O)[C@@H](N)Cc1c[nH]cn1)[C@@H](C)O)[C@@H](C)O)C(=O)N[C@@H](CO)C(=O)N[C@@H](CCCCN)C(=O)N[C@@H](Cc1ccc(O)cc1)C(=O)N[C@@H](CC(C)C)C(=O)N[C@@H](CC(=O)O)C(=O)N[C@@H](CCC(=O)O)C(=O)N[C@@H](CCCNC(=N)N)C(=O)N[C@@H](C)C(=O)NC(C)(C)C(=O)N[C@@H](CCCCN)C(=O)N[C@@H](CCC(=O)O)C(=O)N[C@@H](Cc1ccccc1)C(=O)N[C@H](C(=O)N[C@@H](CCC(N)=O)C(=O)N[C@@H](Cc1c[nH]c2ccccc12)C(=O)N[C@@H](CC(C)C)C(=O)N[C@@H](CC(C)C)C(=O)N[C@@H](CC(=O)O)C(=O)NCC(=O)NCC(=O)N1CCC[C@H]1C(=O)N[C@@H](CO)C(=O)N[C@@H](CO)C(=O)NCC(=O)N[C@@H](C)C(=O)N1CCC[C@H]1C(=O)N1CCC[C@H]1C(=O)N1CCC[C@H]1C(=O)N[C@@H](CO)C(N)=O)C(C)C)C(=O)O` [compound 27] (H-H[Aib]QGTFTSDK([γGlu-Palmitoyl])SKYLDERA[Aib]KEFVQWLLDGGPSSGAPPPS-NH2): the 50% effective concentration (EC50) at GLP-1 receptor (setting [2]) was determined as 2 pM; at GIP receptor (setting [2]), 4 pM; at glucagon receptor (setting [2]) it was 0.165 nM.

As usually defined, the EC50 is the concentration that produces a half-maximal response. Lower therefore signals an effect from little substance.
